Patent publication US20240325398A1, “COMBINATION THERAPIES” (Infinity Pharmaceuticals, Inc., priority 2014, published 2024)

Key:
SU-DHL-4-epst = assay: Combination study, ATPLite 72 h, dose matrix (Synergy Score, CI50); conditions: combination with Compound 1, 72 h
SU-DHL-10-epst = assay: as above; conditions: combination with Compound 1, 72 h
RL = assay: as above; conditions: combination with Compound 1, 72 h
Experimental: Cells are thawed from a liquid nitrogen preserved state. Once cells have been expanded and divide at their expected doubling times, screening begins. Cells are seeded in growth media in either black 1536-well or 384-well tissue culture treated plates. Cells are then equilibrated in assay plates via centrifugation and placed in incubators attached to the Dosing Modules at 37° C. for 24 hours before treatment. […] These Tzero (To) plates are read using ultra-sensitive luminescence on Envision plate readers (Perkin Elmer). Treated assay plates are incubated with compound for 72 hours. After 72 hours, plates are developed for endpoint analysis using ATPLite. All data points are collected via automated processes, quality controlled and analyzed using Zalicus software.
where T is treated cell count and V is untreated (vehicle) cell count (at 72 hours). I ranges from 0% (when T=V) to 100% (when T=0). […] The measure of effect in the experiment can be the inhibition of cellular response relative to the untreated level (vehicle alone). […] The inhibition ranges from 0% at the untreated level to 100% when T=0. Inhibition levels are negative for agents that actually increase levels. Other effect measures, such as an activity ratio r=T/V may be more appropriate for some assays. When activity ratios (e.g, fold increase over stimulated control) are being used, the effect can be measured using an induction 1=ln(T/V). With this definition, all effect expressions are the same as for inhibition.
Growth Inhibition (GI) is used as a measure of cell viability. […] A GI reading of 100% represents complete growth inhibition—T72 compound-treated and T0 vehicle signals are matched. […] A GI reading of 200% represents complete death of all cells in the culture well. Compounds reaching an activity plateau of GI 200% are considered cytotoxic. GI is calculated by applying the following test and equation:
Combination analysis data were collected in a 6×6 dose matrix. Synergy is calculated by comparing a combination's response to those of its single compound, against the drug-with-itself dose-additive reference model. Deviations from dose additivity may be assessed visually on an isobologram or numerically with a Combination Index (CI). […] Additive effect is CI=1.0. […] Antagonistic effect is CI>1.0.
To measure combination effects in excess of Loewe additivity, a scalar measure to characterize the strength of synergistic interaction termed the Synergy Score is devised. The Synergy Score is calculated as:
The fractional inhibition for each component agent and combination point in the matrix is calculated relative to the median of all vehicle-treated control wells. The Synergy Score equation integrates the experimentally-observed activity volume at each point in the matrix in excess of a model surface numerically derived from the activity of the component agents using the Loewe model for additivity. Additional terms in the Synergy Score equation (above) are used to normalize for various dilution factors used for individual agents and to allow for comparison of synergy scores across an entire experiment. The inclusion of positive inhibition gating or an Idata multiplier removes noise near the zero effect level, and biases results for synergistic interactions at that occur at high activity levels.
Loewe Volume (Loewe Vol) is used to assess the overall magnitude of the combination interaction in excess of the Loewe additivity model. Loewe Volume is particularly useful when distinguishing synergistic increases in a phenotypic activity (positive Loewe Volume) versus synergistic antagonisms (negative Loewe Volume). […] This model defines additivity as a non-synergistic combination interaction where the combination dose matrix surface should be indistinguishable from either drug crossed with itself.

Farage = assay: as above; conditions: combination with Compound 1; Farage; 72 h
KARPAS-422 = assay: as above; conditions: combination with Compound 1, 72 h
DOHH2 = assay: Compound 1 with dexamethasone, CellTiter-Glo viability 72 h, combination index; type: cell-based; conditions: combination with Compound 1; DOHH2 cells; CellTiter-Glo 72 h; FIG. 11
Experimental: The effects of Compound 1 with dexamethasone were examined in a panel of cell lines. Cells were cultured and assayed as follows. Compound 1 was serially diluted with cell culture medium and various DMSO concentrations. The top concentration of Compound 1 exposed to cells was 3 uM for cell lines other than WSU-NHL and DOHH2. For WSU-NHL and DOHH2 cell lines, the top concentration of Compound 1 exposed to the cells was 0.3 uM. Dexamethasone was serially diluted in culture media and phosphate buffered saline (PBS). The top concentration of dexamethasone used on cells was 3 uM. Cells were at least 73% viable and were counted and diluted for plating at a density of about 92,000 cell/mL, 130 uL cells per well in 96 well plates for SUDHL6, Karpas 422, SUDHL4, WSU-NHL, RL, and DOHH2 cell lines. The SUDHL10 cell line was plated at a density of about 46,000 cells/mL, 130 uL cells per well in 96 well plates.
Various concentrations of Compound 1 and various combinations of dexamethasone were added to various wells of cells. Single agents (Compound 1 or dexamethasone alone) were also added to some wells of cells. Cells were incubated with compounds for 72 hours. To assay for effects of the compounds on cell viability, a CellTiter-Glo® luminescent cell viability assay (commercially available) was used. To each plate of cells, 100 uL CellTiter-Glo reagent was added, incubated, and luminescence quantified using a […].
The results for cell line DOHH2 are depicted in FIG. 11 and Table 11. […] Table 11 depicts combination index (CI) values for different combinations of dexamethasone/Compound 1 concentrations.

WSU-NHL = assay: Combination study, ATPLite 72 h, dose matrix (Synergy Score, CI50); conditions: combination with Compound 1, 72 h

For C[C@@H]1C[C@H]2[C@@H]3CCC4=CC(=O)C=C[C@]4(C)[C@@]3(F)[C@@H](O)C[C@]2(C)[C@@]1(O)C(=O)CO [dexamethasone, (8S,9R,10S,11S,13S,14S,16R,17R)-9-Fluoro-11,17-dihydroxy-17-(2-hydroxyacetyl)-10,13,16-trimethyl-6,7,8,9,10,11,12,13,14,15,16,17-dodecahydro-3H-cyclopenta[a]phenanthren-3-one], the CI50 growth inhibition (SU-DHL-4-epst) was “T (T=0.5 to <0.7)”, the CI50 inhibition (SU-DHL-4-epst) was “T (T=0.5 to <0.7)” and the “Synergy Score growth inhibition” value (SU-DHL-4-epst) was “A3 (A3=>3)”. The “Synergy Score inhibition” value (SU-DHL-4-epst) was “A3 (A3=>3)”, the CI50 growth inhibition (SU-DHL-10-epst) was “S (S=0.01 to <0.5)” and the CI50 inhibition (SU-DHL-10-epst) was “S (S=0.01 to <0.5)”. The “Synergy Score growth inhibition” value (SU-DHL-10-epst) was “A3 (A3=>3)”, the “Synergy Score inhibition” value (SU-DHL-10-epst) was “A3 (A3=>3)” and the CI50 growth inhibition (RL) was “S (S=0.01 to <0.5)”. The CI50 inhibition (RL) was “S (S=0.01 to <0.5)”, the “Synergy Score growth inhibition” value (RL) was “A3 (A3=>3)” and the “Synergy Score inhibition” value (RL) was “A3 (A3=>3)”. The CI50 growth inhibition (Farage) was “U (U=0.7 to <1)”, the CI50 inhibition (Farage) was “T (T=0.5 to <0.7)” and the “Synergy Score growth inhibition” value (Farage) was “A3 (A3=>3)”. The “Synergy Score inhibition” value (Farage) was “A3 (A3=>3)”, the CI50 growth inhibition (KARPAS-422) was “U (U=0.7 to <1)” and the CI50 inhibition (KARPAS-422) was “U (U=0.7 to <1)”. For the same compound, the “Synergy Score growth inhibition” value (KARPAS-422) was “A3 (A3=>3)”, the “Synergy Score inhibition” value (KARPAS-422) was “A3 (A3=>3)” and the “synergy of the combination” value (DOHH2) was “synergy”. For the same compound, the CI50 inhibition (WSU-NHL) was “T (T=0.5 to <0.7)”, the “Synergy Score growth inhibition” value (WSU-NHL) was “A3 (A3=>3)” and the “Synergy Score inhibition” value (WSU-NHL) was “A3 (A3=>3)”.
